US11485733B2, “Azaquinoline derivatives” (BAYER ANIMAL HEALTH GMBH, priority 2017, dated 2022)

How the values were obtained:
[1] = molecular target: C. elegans Slo-1a (Caenorhabditis elegans, UniProt Q95V25); settings: pE50 (negative decadic logarithm of EC50), CHO cells expressing C. elegans Slo-1a; voltage sensitive dye, 70 mM KCl
Procedure: Generation of a Stable C. elegans CHO Cell Line
A CHO cell line was obtained from ATCC, code ATCC CRL-9096. […] The transfection solution included 300 μL OptiMEM (Life Technologies, Nr.: 31985), 2 μL (=6 μg) of plasmid DNA containing the C. elegans Slo 1a gene and 9 μL FugeneHD (Promega, Nr.: E2311), and was added to the cells prior to incubation for 48 hours at 37° C., 5% CO2. The transfection medium was exchanged for the selection medium which contains additional G418 (2 mg/ml, Invitrogen, Nr.: 10131) and the cells were seeded into 384 well plates (300 cells/well). After a few weeks, the remaining surviving cells were tested with a voltage sensitive dye (Membrane Potential Assay Kit, Molecular Devices Nr.: R8034) for K+ channel expression. Positive cell clones were purified by the limited dilution technique. For this the clone with the highest and most robust signal in the voltage sensitive dye assay was further subcloned (incubated) in 384 well plates (0.7 cells/well) in order to obtain clonal purity. This generated a final stable CHO cell line expressing the C. elegans Slo-1a.
Cells were cultured at 37° C. and 5% CO2 in MEMalpha with Gutamax I (Invitrogen, Nr.: 32571), supplemented with 10% (v/v) heat inactivated fetal bovine serum (Invitrogen, Nr.: 10500), G418 (1 mg/ml, Invitrogen, Nr.: 10131). Cells were detached using Accutase (Sigma, Nr.: A6964).
Membrane Potential Measurements
Laboratory compound testing was performed on 384-well microtiter plates (MTPs, Greiner, Nr.: 781092). 8000 cells/well were plated onto 384-well MTPs and cultured for 20 to 24 hours at 37° C. and 5% CO2. After removal of the cell culture medium, the cells were washed once with tyrode (150 mM NaCl, 0.3 mM KCl, 2 mM CaCl2, 1 mM MgCl2, 0.8 mM NaH2PO4, 5 mM Glucose, 28 mM Hepes, pH 7.4) and then loaded with the voltage sensitive dye of the Membrane Potential Assay Kit diluted in tyrode for 1 h at room temperature.
After starting the measurement of fluorescence using a FLIPR Tetra (Molecular Devices, Exc. 510-545 nm, Emm. 565-625 nm), test compounds were added followed by the addition of KCl tyrode (final assay concentration: 70 mM KCl, 2 mM CaCl2, 1 mM MgCl2, 0.8 mM NaH2PO4, 5 mM Glucose, 28 mM Hepes, pH 7.4, including the voltage sensitive dye). The measurement was completed after 7 minutes.
The data were evaluated by using the ActivityBase XLfit software (IDBS) for curve fitting and calculation of the half-maximal effective concentration (EC50) and are reported as negative decadic logarithm (pE50).

[2] = system: Cooperia curticei; test: Cooperia curticei larval mortality; settings: 120 h, read-out: activity (percentage of larval mortality)
Procedure: In Vitro Assay 6: Cooperia curticei
Solvent: Dimethyl Sulfoxide
Approximately 40 nematode larvae (Cooperia curticei) are transferred into a test tube containing the compound solution.
After 5 days percentage of larval mortality is recorded. 100% efficacy means all larvae are killed; 0% efficacy means no larvae are killed.

[3] = system: Haemonchus contortus; test: Haemonchus contortus larval mortality; settings: 120 h, read-out: activity (percentage of larval mortality)
Procedure: In Vitro Assay 7: Haemonchus contortus
Solvent: Dimethyl Sulfoxide
Approximately 40 larvae of the red stomach worm (Haemonchus contortus) are transferred into a test tube containing compound solution.
After 5 days the percentage of larval mortality is recorded. 100% efficacy means all larvae are killed, 0% efficacy means no larvae are killed.

[4] = system: Nippostrongylus brasiliensis; test: Nippostrongylus brasiliensis (NIPOBR) adult worms, acetylcholine esterase readout; settings: read-out: activity (reduction of AChE compared to negative control); for inhibition at 1 µg/mL: at 1 μg/ml (1 ppm); for inhibition at 10 µg/mL: at 10 μg/ml (10 ppm)
Procedure: In Vitro Assay 3: Nippostrongylus brasiliensis (NIPOBR)
Adult Nippostrongylus brasiliensis were washed with saline buffer containing 100 U/ml penicillin, 0.1 mg/ml streptomycin and 2.5 μg/ml amphotericin B. Test compounds were dissolved in DMSO and worms were incubated in medium in a final concentration of 10 μg/ml (10 ppm) respectively 1 μg/ml (1 ppm). An aliquot of the medium was used to determine the acetylcholine esterase activity in comparison to a negative control. The principle of measuring acetylcholine esterase as readout for anthelmintic activity was described in Rapson et al (1986) and Rapson et al (1987).

[5] = system: Dirofilaria immitis microfilariae; test: Dirofilaria immitis microfilariae (DIROIM L1) motility; settings: 72 h, read-out: EC50 (reduction of motility)
[6] = molecular target: D. immitis Slo-1 (Dirofilaria immitis, UniProt I0DFK5); test: D. immitis Slo-1, action at a recombinant CHO cell line (membrane potential, FLIPR); format: cell-based
[7] = system: Dirofilaria immitis; test: Dirofilaria immitis (DIROIM L4) larval motility; settings: 72 h, read-out: EC50 (reduction of motility)
[8] = system: Litomosoides sigmodontis third-stage larvae; test: Litomosoides sigmodontis (LTMOSI L3) larval motility; settings: 72 h, read-out: EC50 (reduction of motility)
Procedure: In Vitro Assay 6: Litomosoides sigmodontis (LTMOSI L3)
10 Litomosoides sigmodontis third-stage larvae, which were freshly isolated from the pleural cavity of an infected rodent, were added to wells of a microtitre plate containing a nutrient medium and the test compound in DMSO. Compounds were tested in concentration-response assay in duplicate. Larvae exposed to DMSO and no test compounds were used as negative controls. Larvae were evaluated after 72 h of incubation with the compound. Efficacy was determined as the reduction of motility in comparison to the negative control. Based on the evaluation of a wide concentration range, concentration-response curves as well as EC50-values were calculated.

Sequence of C. elegans Slo-1a (Q95V25 whole entry): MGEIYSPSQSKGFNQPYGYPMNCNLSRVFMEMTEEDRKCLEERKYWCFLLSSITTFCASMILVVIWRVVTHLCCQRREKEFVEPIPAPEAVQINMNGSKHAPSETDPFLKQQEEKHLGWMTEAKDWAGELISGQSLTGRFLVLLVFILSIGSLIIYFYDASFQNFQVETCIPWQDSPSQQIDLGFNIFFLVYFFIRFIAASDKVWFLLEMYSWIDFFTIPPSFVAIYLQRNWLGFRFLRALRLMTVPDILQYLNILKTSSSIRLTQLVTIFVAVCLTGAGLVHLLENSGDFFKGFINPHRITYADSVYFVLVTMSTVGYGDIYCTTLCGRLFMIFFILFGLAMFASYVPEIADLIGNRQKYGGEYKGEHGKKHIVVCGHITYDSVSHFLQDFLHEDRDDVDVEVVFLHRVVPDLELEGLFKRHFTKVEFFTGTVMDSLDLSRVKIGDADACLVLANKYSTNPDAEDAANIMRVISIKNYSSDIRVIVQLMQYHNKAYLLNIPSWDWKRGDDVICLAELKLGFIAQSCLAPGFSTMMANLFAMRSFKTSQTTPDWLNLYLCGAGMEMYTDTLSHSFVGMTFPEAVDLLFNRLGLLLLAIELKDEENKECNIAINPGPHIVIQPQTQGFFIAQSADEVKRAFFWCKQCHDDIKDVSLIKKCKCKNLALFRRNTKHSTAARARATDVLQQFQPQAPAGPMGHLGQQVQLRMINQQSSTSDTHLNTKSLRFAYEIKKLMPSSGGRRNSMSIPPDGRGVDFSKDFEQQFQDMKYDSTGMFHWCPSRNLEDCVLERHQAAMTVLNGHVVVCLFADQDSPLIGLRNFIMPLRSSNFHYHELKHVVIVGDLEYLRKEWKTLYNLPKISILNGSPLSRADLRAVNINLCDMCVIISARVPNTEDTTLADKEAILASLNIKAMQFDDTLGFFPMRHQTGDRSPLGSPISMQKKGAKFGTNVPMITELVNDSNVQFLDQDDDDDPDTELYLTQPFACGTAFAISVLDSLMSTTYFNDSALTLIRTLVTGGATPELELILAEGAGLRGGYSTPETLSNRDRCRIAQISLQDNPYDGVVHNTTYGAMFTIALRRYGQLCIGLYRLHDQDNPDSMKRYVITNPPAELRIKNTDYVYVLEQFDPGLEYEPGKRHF
Sequence of D. immitis Slo-1 (I0DFK5 1-1119): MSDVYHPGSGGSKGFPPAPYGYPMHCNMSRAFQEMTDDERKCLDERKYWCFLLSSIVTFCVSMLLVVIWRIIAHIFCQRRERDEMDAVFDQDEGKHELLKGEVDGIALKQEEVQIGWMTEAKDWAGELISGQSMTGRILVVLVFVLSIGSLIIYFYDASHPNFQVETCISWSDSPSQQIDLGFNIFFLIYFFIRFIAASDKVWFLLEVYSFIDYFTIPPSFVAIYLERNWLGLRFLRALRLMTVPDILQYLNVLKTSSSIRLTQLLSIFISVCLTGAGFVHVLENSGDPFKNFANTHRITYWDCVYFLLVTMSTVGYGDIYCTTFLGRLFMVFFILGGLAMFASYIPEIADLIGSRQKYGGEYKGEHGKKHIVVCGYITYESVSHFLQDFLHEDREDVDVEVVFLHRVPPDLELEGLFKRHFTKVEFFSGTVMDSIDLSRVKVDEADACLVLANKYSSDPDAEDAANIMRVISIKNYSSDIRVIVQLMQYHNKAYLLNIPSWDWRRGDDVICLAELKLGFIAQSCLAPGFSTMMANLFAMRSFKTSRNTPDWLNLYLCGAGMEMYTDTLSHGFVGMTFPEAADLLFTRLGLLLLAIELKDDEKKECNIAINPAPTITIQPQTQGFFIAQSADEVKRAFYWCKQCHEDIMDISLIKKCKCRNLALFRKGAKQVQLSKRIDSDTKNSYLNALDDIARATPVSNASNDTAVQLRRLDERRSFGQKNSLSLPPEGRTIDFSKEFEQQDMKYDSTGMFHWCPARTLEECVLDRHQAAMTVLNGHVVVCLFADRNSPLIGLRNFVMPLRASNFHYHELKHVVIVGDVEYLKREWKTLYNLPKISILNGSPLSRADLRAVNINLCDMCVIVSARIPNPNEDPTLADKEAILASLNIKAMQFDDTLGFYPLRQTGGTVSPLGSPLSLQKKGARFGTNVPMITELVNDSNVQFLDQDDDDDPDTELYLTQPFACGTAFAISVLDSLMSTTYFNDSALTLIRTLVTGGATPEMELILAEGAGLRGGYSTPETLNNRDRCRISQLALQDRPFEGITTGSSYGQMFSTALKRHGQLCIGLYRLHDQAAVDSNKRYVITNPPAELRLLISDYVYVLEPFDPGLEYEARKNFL

| Structure (SMILES) | EC50 [1] | mortality at 4 ppm [2] | mortality at 20 ppm [2] | mortality at 20 ppm [3] | inhibition at 1 µg/mL [4] | inhibition at 10 µg/mL [4] | EC50 [5] | EC50 [6] | EC50 [7] | EC50 [8] |
| --- | --- | --- | --- | --- | --- | --- | --- | --- | --- | --- |
| CN(C)c1c(C(=O)N[C@H]2CCOc3ccccc32)cnc2c(-c3cccc(Cl)c3Cl)nccc12 [Example T1-2, 8-(2,3-Dichlorophenyl)-N-[(4S)-3,4-dihydro-2H-chromen-4-yl]-4-(dimethylamino)-1,7-naphthyridine-3-carboxamide] | 3.16 to 31.6 nM | 100% | 100% | 90% | > 80% | > 80% | < 0.1 µg/mL | 31.6 to 316 nM | < 0.1 µg/mL |  |
| O=C(N[C@H]1CCOc2ccccc21)c1cnc2c(-c3cc(Cl)cc(Cl)c3)nccc2c1N1CCOCC1 [Example T1-3, 8-(3,5-Dichlorophenyl)-N-[(4S)-3,4-dihydro-2H-chromen-4-yl]-4-(morpholin-4-yl)-1,7-naphthyridine-3-carboxamide] | 3.16 to 31.6 nM | 100% | 100% | 100% | > 80% | > 80% | < 0.1 µg/mL | 31.6 to 316 nM | < 0.1 µg/mL |  |
| O=C(N[C@H]1CCOc2ccccc21)c1cnc2c(-c3cc(Cl)cc(Cl)c3Cl)nccc2c1N1CCOCC1 [Example T1-6, N-[(4S)-3,4-dihydro-2H-chromen-4-yl]-4-(morpholin-4-yl)-8-(2,3,5-trichlorophenyl)-1,7-naphthyridine-3-carboxamide] | < 3.16 nM | 100% | 100% | 100% | > 80% |  | < 0.1 µg/mL | 3.16 to 31.6 nM | < 0.1 µg/mL |  |
| CN(C)c1c(C(=O)N[C@H]2CCOc3ccccc32)cnc2c(-c3cccc(Cl)c3Cl)ncc(F)c12 [Example T1-10, 8-(2,3-dichlorophenyl)-N-[(4S)-3,4-dihydro-2H-1-benzopyran-4-yl]-4-(dimethylamino)-5-fluoro-1,7-naphthyridine-3-carboxamide] | 3.16 to 31.6 nM |  |  |  |  | > 80% | < 0.1 µg/mL | 31.6 to 316 nM | < 0.1 µg/mL | < 0.1 µg/mL |
| CN(C)c1c(C(=O)N[C@H]2CCOc3ccccc32)cnc2c(-c3cc(F)cc(F)c3F)ncc(F)c12 [Example T1-12, N-[(4S)-3,4-dihydro-2H-1-benzopyran-4-yl]-4-(dimethylamino)-5-fluoro-8-(2,3,5-trifluorophenyl)-1,7-naphthyridine-3-carboxamide] |  |  |  |  | > 80% | > 80% | < 0.1 µg/mL | 31.6 to 316 nM | < 0.1 µg/mL | < 0.1 µg/mL |
| CN(C)c1c(C(=O)N[C@H]2CCOc3ccccc32)cnc2c(-c3cc(Cl)cc(Cl)c3)cncc12 [Example T2-1, 8-(3,5-Dichlorophenyl)-N-[(4S)-3,4-dihydro-2H-chromen-4-yl]-4-(dimethylamino)-1,6-naphthyridine-3-carboxamide] | 3.16 to 31.6 nM | 100% | 100% | 100% | > 80% |  | < 0.1 µg/mL | 31.6 to 316 nM | < 0.1 µg/mL |  |
| O=C(N[C@H]1CCOc2ccccc21)c1cnc2c(-c3cccc(Cl)c3Cl)cncc2c1N1CCOCC1 [Example T2-3, 8-(2,3-Dichlorophenyl)-N-[(4S)-3,4-dihydro-2H-chromen-4-yl]-4-(morpholin-4-yl)-1,6-naphthyridine-3-carboxamide] | 3.16 to 31.6 nM | 80% | 100% | 90% | > 80% |  | < 0.1 µg/mL | 3.16 to 31.6 nM | < 0.1 µg/mL |  |
| COc1ncc(-c2cc(Cl)cc(Cl)c2)c2ncc(C(=O)N[C@H]3CCOc4ccccc43)c(N(C)C)c12 [Example T2-5, 8-(3,5-dichlorophenyl)-N-[(4S)-3,4-dihydro-2H-1-benzopyran-4-yl]-4-(dimethylamino)-5-methoxy-1,6-naphthyridine-3-carboxamide] |  |  |  |  | > 80% | > 80% | < 0.1 µg/mL | 31.6 to 316 nM | < 0.1 µg/mL | < 0.1 µg/mL |
| O=C(N[C@H]1CCOc2ccccc21)c1cnc2c(-c3cc(Cl)cc(Cl)c3)ccnc2c1N1CCOCC1 [Example T3-2, 8-(3,5-Dichlorophenyl)-N-[(4S)-3,4-dihydro-2H-chromen-4-yl]-4-(morpholin-4-yl)-1,5-naphthyridine-3-carboxamide] | 3.16 to 31.6 nM | 90% | 90% | 90% |  |  | < 0.1 µg/mL |  | < 0.1 µg/mL |  |
| O=C(N[C@H]1CCOc2ccccc21)c1cnc2c(-c3cccc(Cl)c3Cl)ccnc2c1N1CCOCC1 [Example T3-4, 8-(2,3-Dichlorophenyl)-N-[(4S)-3,4-dihydro-2H-chromen-4-yl]-4-(morpholin-4-yl)-1,5-naphthyridine-3-carboxamide] | < 3.16 nM | 100% | 100% | 100% | > 80% |  | < 0.1 µg/mL | 3.16 to 31.6 nM | < 0.1 µg/mL |  |
| COc1cnc2c(N(C)C)c(C(=O)N[C@H]3CCOc4ccccc43)cnc2c1-c1cc(F)cc(F)c1F [Example T3-15, N-[(4S)-3,4-dihydro-2H-1-benzopyran-4-yl]-4-(dimethylamino)-7-methoxy-8-(2,3,5-trifluorophenyl)-1,5-naphthyridine-3-carboxamide] |  |  |  |  | > 80% | > 80% | < 0.1 µg/mL | 3.16 to 31.6 nM | < 0.1 µg/mL | < 0.1 µg/mL |
| CN(C)c1c(C(=O)N[C@H]2CCOc3ccccc32)cnc2c(-c3cccc(Cl)c3Cl)c(F)cnc12 [Example T3-17, 8-(2,3-dichlorophenyl)-N-[(4S)-3,4-dihydro-2H-1-benzopyran-4-yl]-4-(dimethylamino)-7-fluoro-1,5-naphthyridine-3-carboxamide] |  |  |  |  | > 80% | > 80% | < 0.1 µg/mL | 3.16 to 31.6 nM | < 0.1 µg/mL | < 0.1 µg/mL |
| O=C(N[C@H]1CCOc2ccccc21)c1cnc2c(-c3cc(F)cc(F)c3F)c(F)cnc2c1N1CCOCC1 [Example T3-20, N-[(4S)-3,4-dihydro-2H-1-benzopyran-4-yl]-7-fluoro-4-(morpholin-4-yl)-8-(2,3,5-trifluorophenyl)-1,5-naphthyridine-3-carboxamide] |  |  |  |  | > 80% | > 80% | < 0.1 µg/mL | 3.16 to 31.6 nM | < 0.1 µg/mL | < 0.1 µg/mL |
| COc1c(C(=O)N[C@H]2CCOc3ccccc32)nnc2c(-c3cc(Cl)cc(Cl)c3)cccc12 [Example T5-5, 8-(3,5-Dichlorophenyl)-N-[(4S)-3,4-dihydro-2H-chromen-4-yl]-4-methoxycinnoline-3-carboxamide] | 3.16 to 31.6 nM | 80% | 80% | 80% | > 80% |  | < 0.1 µg/mL | 31.6 to 316 nM | < 0.1 µg/mL |  |
| CN(C)c1c(C(=O)N[C@H]2CCOc3ccccc32)cnc2c(-c3cccc(Cl)c3Cl)cnnc12 [Example T6-1, 4-(2,3-Dichlorophenyl)-N-[(4S)-3,4-dihydro-2H-chromen-4-yl]-8-(dimethylamino)pyrido[3,2-c]pyridazine-7-carboxamide] | 3.16 to 31.6 nM |  | 90% | 100% | > 80% |  | < 0.1 µg/mL |  | < 0.1 µg/mL |  |
